In assay [1] the target is recombinant human 5-HT6 receptors (Homo sapiens (Human), UniProt P50406). The assay is described as follows: Competitive radioligand binding ([3H] Lysergic acid diethylamide) to serotonin 5-HT6 receptors, HeLa cell membranes. The settings on record: for IC50: 1.5 nM [3H] Lysergic acid diethylamide, 120 min at 37° C. As to the method: Screening of the disclosed compounds for their potential ability to interact with serotonin 5-HT6 receptors was carried out by the method of radioligand binding. For this purpose membrane species were prepared from HeLa cells expressing recombinant human 5-HT6 receptors, by means of cells homogenization in glass homogenizer with subsequent separation of plasmatic membranes from cell nucli, mitochondria's and cell wreckages by differential centrifugation. Determination of tested compounds binding to 5-HT6 receptors was carried out according to the method described in [Monsma F J Jr, Shen Y, Ward R P, Hamblin M W and Sibley D R, Cloning and expression of a novel serotonin receptor with high affinity for tricyclic psychotropic drugs. Mol. Pharmacol. 43:320-327, 1993]. […] After the incubation the samples were filtered in vacuo on glass-microfiber filters G/F (Millipor, USA), filters were washed three times with cold solution of the medium and radioactivity was measured by scintillation counter MicroBeta 340 (PerkinElmer, USA). […] Methiothepin was used as a positive control. Binding of the tested compounds with the receptor was determined by their ability to displace the radioligand and was expressed in percent of displacement. The percent of displacement was calculated according to the following equation:
[formula] wherein: TA—was overall radioactivity in the presence of radioligand only, CA—was radioactivity in the presence of radioligand and tested compound and NA—was radioactivity in the presence of radioligand and Serotonin (5 μM).

The test system of assay [2] is mice. As to the kind of experiment: Passive Avoidance of mice in the Shuttle Chamber, memory disturbed by MK-801. Type of assay: in vivo. As to conditions: MK-801 0.1 mg/kg, injected 30 minutes before training.

Structures can show the parent of a compound that is named as a salt.

Here are results for 4 compounds from patent US8569318B2, “Tetrahydro-pyrazolo[1,5-a]pyrido-pyrimidines as antagonists of serotonin 5-HT6 receptors, methods for the production and use thereof” (priority 2008, dated 2013).

Chain of recombinant human 5-HT6 receptors (P50406 whole entry): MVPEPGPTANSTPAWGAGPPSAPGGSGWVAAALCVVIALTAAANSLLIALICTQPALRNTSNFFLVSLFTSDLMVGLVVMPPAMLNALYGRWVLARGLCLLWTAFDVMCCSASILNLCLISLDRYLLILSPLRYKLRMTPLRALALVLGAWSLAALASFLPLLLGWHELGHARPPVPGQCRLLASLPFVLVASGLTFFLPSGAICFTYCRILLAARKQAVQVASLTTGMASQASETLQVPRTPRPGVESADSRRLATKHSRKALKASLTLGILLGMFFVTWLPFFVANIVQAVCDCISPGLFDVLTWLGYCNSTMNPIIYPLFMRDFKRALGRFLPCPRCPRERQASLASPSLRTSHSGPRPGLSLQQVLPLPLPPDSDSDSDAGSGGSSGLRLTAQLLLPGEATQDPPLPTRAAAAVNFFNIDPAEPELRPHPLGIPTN

Consider `Cc1nn2c3c(cnc2c1S(=O)(=O)c1ccccc1)CNCC3` [1.1(1)], for which, in assay [1], the IC50 worked out at 0.00461 µM. In the case of `Cc1nn2c3c(cnc2c1S(=O)(=O)c1ccccc1)CN(C)CC3` [1.1(3).HCl], the “nootropic effect (enhancement of memory disturbed by MK-801)” value in assay [2] is on record as “ability of active ingredient 1.1(3).HCl to produce nootropic effect”. With `CSc1nn2cc3c(nc2c1S(=O)(=O)c1ccccc1)CCN(C)C3` [2.2(2)], in assay [1], the IC50 is 0.801 µM. The Ki in assay [1] (Ki=IC50/(1+[L]/KD)) was 0.372 µM.

Consider `CSc1nn2cc3c(nc2c1S(=O)(=O)c1ccc(F)cc1)CCN(C)C3` [2.2(3)], for which the IC50 in assay [1] is greater than 1 µM.

Usually IC50 stands for the midpoint of a concentration-inhibition curve. Broadly, the Ki is the equilibrium dissociation constant of an inhibitor or competing ligand from its target.
